Results on 15 molecules are retold here after patent US10118947B2, “Modulation of structured polypeptide specificity” (BICYCLE THERAPEUTICS LIMITED, priority 2013, dated 2018).

Read-outs that look alike come from different tables or passages of the source. Numbered stars: 1 amine (or outer) side, 2 acyl side, 3 side chain; on linkers, the order of the positions; unused ones are H or OH. Bridge positions count the residues as written; N and C are the ends. Square brackets hold non-standard residues; d marks the D form. Peptide text beside a SMILES is read from it. Ala(4-thiazolyl) = N[C@@H](Cc1cscn1)C(=O)O; Ala(2-furyl) = N[C@@H](Cc1ccco1)C(=O)O; TBMB = c1c(C[*:1])cc(C[*:3])cc1C[*:2]; X1 = O=C([C@H](Cn1cncn1)N[*:1])[*:2]; 2Pal = N[C@@H](Cc1ccccn1)C(=O)O; 3Pal = N[C@@H](Cc1cccnc1)C(=O)O; 4Pal = N[C@@H](Cc1ccncc1)C(=O)O; Agb = N=C(N)NCC[C@H](N)C(=O)O; Agp = N=C(N)NC[C@H](N)C(=O)O

This experiment concerns the target T1, human plasma Kallikrein (Homo sapiens, UniProt P03952).
T1 construct: purchased Stratech, UK
The experiment can be described thus: Functional enzyme inhibition assay with fluorogenic substrate Z-PheArg-AMC, human plasma Kallikrein. It counts as biochemical. The note with it: for F (Kivar/KiWT): ratio of Ki to wild type. The procedure:
Functional enzyme assays were conducted in 10 mM Tris HCl, 150 mM NaCl, 10 mM MgCl2, 1 mM CaCl2) and 1 mg/mL BSA (all Sigma UK) pH7.4 at 25° C. in solid black 96 well plates. Briefly 26.5 pM human plasma Kallikrein (purchased from Stratech, UK) or 500 pM rat plasma Kallikrein (expressed and purified in house) were incubated in the absence or presence of increasing concentrations of test peptide for 15 minutes before addition of the fluorogenic substrate Z-PheArg-AMC (Enzo Lifesciences UK) to a final assay concentration of 100 μM in 4% DMSO. Release of AMC was measured using a Pherastar FS (BMG Labtech), excitation 360 nm, emission 460 nm. The rate of the linear phase of the reaction, typically 5 to 45 minutes, was calculated in MARS data analysis software (BMG labtech). The rate was then used to calculate the IC50 and Ki in Prism (GraphPad). A four parameter inhibition non-linear regression equation was used to calculate the IC50.
Peptides were dissolved as the TFA-salts in their powder form, and stock solutions were usually prepared in water. All solutions were centrifuged and filtered ([…] syringe filters) prior absorption measurement at 280 nm. […] For peptides containing non-natural amino acids with suspected chromophoric properties (i.e. NorHar, 4PhenylPro, 3Pal, 4Pal, Tic, 4GuanPhe, 4,4-BPAI, 3,3-DPA, 1NAI, 2NAI, 4BenzylPro, Ind) concentrations were determined by weighing the powder and dissolving the peptide in a defined quantity of water.

Setting [1] is: Table 3c, D-Alanine scan in Loop2, read-out: Ki.
Setting [2] is: Table 24b, residue 7 modifications, read-out: Ki.

T1 sequence (P03952 20-638): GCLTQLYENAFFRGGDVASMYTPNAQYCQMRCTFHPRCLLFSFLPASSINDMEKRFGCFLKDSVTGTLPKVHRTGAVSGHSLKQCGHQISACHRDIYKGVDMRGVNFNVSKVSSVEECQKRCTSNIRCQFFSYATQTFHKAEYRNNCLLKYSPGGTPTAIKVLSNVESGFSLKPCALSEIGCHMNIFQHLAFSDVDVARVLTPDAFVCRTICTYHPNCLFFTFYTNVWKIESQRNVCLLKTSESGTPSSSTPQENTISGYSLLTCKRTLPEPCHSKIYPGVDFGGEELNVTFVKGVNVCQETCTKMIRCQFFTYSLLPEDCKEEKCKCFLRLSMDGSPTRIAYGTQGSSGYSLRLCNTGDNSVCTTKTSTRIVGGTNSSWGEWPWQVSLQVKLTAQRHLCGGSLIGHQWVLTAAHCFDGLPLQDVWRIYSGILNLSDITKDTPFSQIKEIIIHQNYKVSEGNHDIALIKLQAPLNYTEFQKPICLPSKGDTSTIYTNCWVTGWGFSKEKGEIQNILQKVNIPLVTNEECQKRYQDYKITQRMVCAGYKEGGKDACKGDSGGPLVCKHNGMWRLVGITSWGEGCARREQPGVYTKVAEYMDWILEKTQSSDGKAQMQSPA

As to `CC(=O)N[C@H]1CSCc2cc3cc(c2)CSC[C@H](NC(=O)[C@H](CCCNC(=N)N)NC(=O)[C@H](C)NC(=O)[C@@H]2CCCN2C(=O)[C@H](Cc2c[nH]c4ccccc24)NC(=O)[C@H](CO)NC1=O)C(=O)N[C@@H](CC(C)C)C(=O)N[C@@H](Cc1c[nH]cn1)C(=O)N[C@H](C)C(=O)N[C@@H](CC(=O)O)C(=O)N[C@@H](CC(C)C)C(=O)N[C@H](C(N)=O)CSC3` [Ac-(06-34-18) D-Ala8] (Ac-CSWPARCLH[dA]DLC-NH2; linker 1-7-13 via TBMB), under setting [1], the Ki (in general, the dissociation constant of the complex between target and ligand, obtained from inhibition or displacement) stood at 11.7 nM. Further, the “F (Kivar/KiWT)” value (Table 3c) was 28. On the same counts, the results for `CC(=O)N[C@H]1CSCc2cc3cc(c2)CSC[C@H](NC(=O)[C@H](CCCNC(=N)N)NC(=O)[C@H](C)NC(=O)[C@@H]2CCCN2C(=O)[C@H](Cc2c[nH]c4ccccc24)NC(=O)[C@H](CO)NC1=O)C(=O)N[C@@H](CC(C)C)C(=O)N[C@@H](Cc1c[nH]cn1)C(=O)N[C@@H](CCC(N)=O)C(=O)N[C@H](C)C(=O)N[C@@H](CC(C)C)C(=O)N[C@H](C(N)=O)CSC3` [Ac-(06-34-18) D-Ala9] (Ac-CSWPARCLHQ[dA]LC-NH2; linker 1-7-13 via TBMB) are 0.87 nM and 2. As for `CC(=O)N[C@H]1CSCc2cc3cc(c2)CSC[C@H](NC(=O)[C@@H](CCCNC(=N)N)NC(=O)[C@H](C)NC(=O)[C@@H]2CCCN2C(=O)[C@H](Cc2c[nH]c4ccccc24)NC(=O)[C@H](CO)NC1=O)C(=O)N[C@@H](CC(C)C)C(=O)N[C@@H](Cc1c[nH]cn1)C(=O)N[C@@H](CCC(N)=O)C(=O)N[C@@H](CC(=O)O)C(=O)N[C@@H](CC(C)C)C(=O)N[C@H](C(N)=O)CSC3` [Ac-(06-34-18) D-Arg5], the “reduction in potency/affinity compared to wildtype” value came out at 300 fold.

Regarding `CC(=O)N[C@H]1CSCc2cc3cc(c2)CSC[C@H](NC(=O)[C@H](CCCNC(=N)N)NC(=O)[C@H](C)NC(=O)[C@@H]2CCCN2C(=O)[C@@H](Cc2c[nH]c4ccccc24)NC(=O)[C@H](CO)NC1=O)C(=O)N[C@@H](CC(C)C)C(=O)N[C@@H](Cc1c[nH]cn1)C(=O)N[C@@H](CCC(N)=O)C(=O)N[C@@H](CC(=O)O)C(=O)N[C@@H](CC(C)C)C(=O)N[C@H](C(N)=O)CSC3` [Ac-(06-34-18) D-Trp2], the “reduction in potency/affinity compared to wildtype” value is reported as 45000 fold. Regarding `CC(=O)N[C@H]1CSCc2cc3cc(c2)CSC[C@H](NC(=O)[C@H](CCCNC(=N)N(C)C)NC(=O)[C@H](C)NC(=O)[C@@H]2CCCN2C(=O)[C@H](Cc2c[nH]c4ccccc24)NC(=O)[C@H](CO)NC1=O)C(=O)N[C@@H](CC(C)C)C(=O)N[C@@H](Cc1c[nH]cn1)C(=O)N[C@@H](CCC(N)=O)C(=O)N[C@@H](CC(=O)O)C(=O)N[C@@H](CC(C)C)C(=O)N[C@H](C(N)=O)CSC3` [Ac-(06-34-18) NDMA5], the Ki (Table 11, read-out: Ki (nM) (human kallikrein)) came to 510 nM. For the molecule `CC(=O)N[C@H]1CSCc2cc3cc(c2)CSC[C@H](NC(=O)[C@H](CCCNC(=N)N)NC(=O)[C@H](Cc2ccc(O)cc2)NC(=O)[C@@H]2CCCN2C(=O)[C@H](Cc2ccccc2)NC(=O)[C@H](CO)NC1=O)C(=O)N[C@@H](CC(C)C)C(=O)N[C@@H](Cn1cncn1)C(=O)N[C@@H](CCC(N)=O)C(=O)N[C@@H](CC(=O)O)C(=O)N[C@@H](CC(C)C)C(=O)N[C@H](C(N)=O)CSC3` [Ac-(06-34-18) Phe2 Tyr4 1,2,4-TriAz7] (Ac-CSFPYRCL[X1]QDLC-NH2; linker 1-7-13 via TBMB), the Ki under setting [2] was 455 nM. For the same molecule, the “F (Kivar/KiWT)” value (Table 24b) is listed as 1084. The like results for `CC(=O)N[C@H]1CSCc2cc3cc(c2)CSC[C@H](NC(=O)[C@H](CCCNC(=N)N)NC(=O)[C@H](Cc2ccc(O)cc2)NC(=O)[C@@H]2CCCN2C(=O)[C@H](Cc2ccccc2)NC(=O)[C@H](CO)NC1=O)C(=O)N[C@@H](CC(C)C)C(=O)N[C@@H](Cc1ccccn1)C(=O)N[C@@H](CCC(N)=O)C(=O)N[C@@H](CC(=O)O)C(=O)N[C@@H](CC(C)C)C(=O)N[C@H](C(N)=O)CSC3` [Ac-(06-34-18) Phe2 Tyr4 2Pal7] (Ac-CSFPYRCL[2Pal]QDLC-NH2; linker 1-7-13 via TBMB) were, in that order, 53 nM and 126. Consider `CC(=O)N[C@H]1CSCc2cc3cc(c2)CSC[C@H](NC(=O)[C@H](CCCNC(=N)N)NC(=O)[C@H](Cc2ccc(O)cc2)NC(=O)[C@@H]2CCCN2C(=O)[C@H](Cc2ccccc2)NC(=O)[C@H](CO)NC1=O)C(=O)N[C@@H](CC(C)C)C(=O)N[C@@H](Cc1cccnc1)C(=O)N[C@@H](CCC(N)=O)C(=O)N[C@@H](CC(=O)O)C(=O)N[C@@H](CC(C)C)C(=O)N[C@H](C(N)=O)CSC3` [Ac-(06-34-18) Phe2 Tyr4 3Pal7] (Ac-CSFPYRCL[3Pal]QDLC-NH2; linker 1-7-13 via TBMB), for which the Ki under setting [2] was determined as 130 nM. Besides, for the setting “Table 24b”, the “F (Kivar/KiWT)” value amounted to 308. With `CC(=O)N[C@H]1CSCc2cc3cc(c2)CSC[C@H](NC(=O)[C@H](CCCNC(=N)N)NC(=O)[C@H](Cc2ccc(O)cc2)NC(=O)[C@@H]2CCCN2C(=O)[C@H](Cc2ccccc2)NC(=O)[C@H](CO)NC1=O)C(=O)N[C@@H](CC(C)C)C(=O)N[C@@H](Cc1ccco1)C(=O)N[C@@H](CCC(N)=O)C(=O)N[C@@H](CC(=O)O)C(=O)N[C@@H](CC(C)C)C(=O)N[C@H](C(N)=O)CSC3` [Ac-(06-34-18) Phe2 Tyr4 4FuAla7] (Ac-CSFPYRCL[Ala(2-furyl)]QDLC-NH2; linker 1-7-13 via TBMB), the “F (Kivar/KiWT)” value (Table 24b) is reported as 39.

Take `CC(=O)N[C@H]1CSCc2cc3cc(c2)CSC[C@H](NC(=O)[C@H](CCCNC(=N)N)NC(=O)[C@H](Cc2ccc(O)cc2)NC(=O)[C@@H]2CCCN2C(=O)[C@H](Cc2ccccc2)NC(=O)[C@H](CO)NC1=O)C(=O)N[C@@H](CC(C)C)C(=O)N[C@@H](Cc1ccncc1)C(=O)N[C@@H](CCC(N)=O)C(=O)N[C@@H](CC(=O)O)C(=O)N[C@@H](CC(C)C)C(=O)N[C@H](C(N)=O)CSC3` [Ac-(06-34-18) Phe2 Tyr4 4Pal7] (Ac-CSFPYRCL[4Pal]QDLC-NH2; linker 1-7-13 via TBMB): under setting [2], the Ki stood at 79 nM. For the same molecule, the “F (Kivar/KiWT)” value (Table 24b) is recorded as 187. The like results for `CC(=O)N[C@H]1CSCc2cc3cc(c2)CSC[C@H](NC(=O)[C@H](CCCNC(=N)N)NC(=O)[C@H](Cc2ccc(O)cc2)NC(=O)[C@@H]2CCCN2C(=O)[C@H](Cc2ccccc2)NC(=O)[C@H](CO)NC1=O)C(=O)N[C@@H](CC(C)C)C(=O)N[C@@H](Cc1cscn1)C(=O)N[C@@H](CCC(N)=O)C(=O)N[C@@H](CC(=O)O)C(=O)N[C@@H](CC(C)C)C(=O)N[C@H](C(N)=O)CSC3` [Ac-(06-34-18) Phe2 Tyr4 4ThiAz7] (Ac-CSFPYRCL[Ala(4-thiazolyl)]QDLC-NH2; linker 1-7-13 via TBMB) were, in that order, 14 nM and 33. For the molecule `CC(=O)N[C@H]1CSCc2cc3cc(c2)CSC[C@H](NC(=O)[C@H](CCCNC(=N)N)NC(=O)[C@H](Cc2ccc(O)cc2)NC(=O)[C@@H]2CCCN2C(=O)[C@H](Cc2ccccc2)NC(=O)[C@H](CO)NC1=O)C(=O)N[C@@H](CC(C)C)C(=O)N[C@@H](CCNC(=N)N)C(=O)N[C@@H](CCC(N)=O)C(=O)N[C@@H](CC(=O)O)C(=O)N[C@@H](CC(C)C)C(=O)N[C@H](C(N)=O)CSC3` [Ac-(06-34-18) Phe2 Tyr4 Agb7] (Ac-CSFPYRCL[Agb]QDLC-NH2; linker 1-7-13 via TBMB), under setting [2], the Ki was found to be 2250 nM. Also, the “F (Kivar/KiWT)” value (Table 24b) stood at 5365. In the case of `CC(=O)N[C@H]1CSCc2cc3cc(c2)CSC[C@H](NC(=O)[C@H](CCCNC(=N)N)NC(=O)[C@H](Cc2ccc(O)cc2)NC(=O)[C@@H]2CCCN2C(=O)[C@H](Cc2ccccc2)NC(=O)[C@H](CO)NC1=O)C(=O)N[C@@H](CC(C)C)C(=O)N[C@@H](CNC(=N)N)C(=O)N[C@@H](CCC(N)=O)C(=O)N[C@@H](CC(=O)O)C(=O)N[C@@H](CC(C)C)C(=O)N[C@H](C(N)=O)CSC3` [Ac-(06-34-18) Phe2 Tyr4 Agp7] (Ac-CSFPYRCL[Agp]QDLC-NH2; linker 1-7-13 via TBMB), under setting [2], the Ki came out at 672 nM. Also, the “F (Kivar/KiWT)” value (Table 24b) is on record as 1599. Turning to `CC(=O)N[C@H]1CSCc2cc3cc(c2)CSC[C@H](NC(=O)[C@H](CCCNC(=N)N)NC(=O)[C@H](Cc2ccc(O)cc2)NC(=O)[C@@H]2CCCN2C(=O)[C@H](Cc2ccccc2)NC(=O)[C@H](CO)NC1=O)C(=O)N[C@@H](CC(C)C)C(=O)N[C@@H](Cc1c[nH]cn1)C(=O)N[C@@H](CC(=O)O)C(=O)N[C@@H](CC(=O)O)C(=O)N[C@@H](CC(C)C)C(=O)N[C@H](C(N)=O)CSC3` [Ac-(06-34-18) Phe2 Tyr4 Asp8] (Ac-CSFPYRCLHDDLC-NH2; linker 1-7-13 via TBMB), the Ki (Table 24c, residue 8 modifications, read-out: Ki) was 3.83 nM. Also, where the note is “Table 24c”, the “F (Kivar/KiWT)” value is reported as 9. On to `CC(=O)N[C@H]1CSCc2cc3cc(c2)CSC[C@H](NC(=O)[C@H](CCCNC(=N)N)NC(=O)[C@H](Cc2ccc(O)cc2)NC(=O)[C@@H]2CCCN2C(=O)[C@H](Cc2ccccc2)NC(=O)[C@H](CO)NC1=O)C(=O)N[C@H](C)C(=O)N[C@@H](Cc1c[nH]cn1)C(=O)N[C@@H](CCC(N)=O)C(=O)N[C@@H](CC(=O)O)C(=O)N[C@@H](CC(C)C)C(=O)N[C@H](C(N)=O)CSC3` [Ac-(06-34-18) Phe2 Tyr4 D-Ala6] (Ac-CSFPYRC[dA]HQDLC-NH2; linker 1-7-13 via TBMB), for which the Ki under setting [1] is 9450 nM. For the same molecule, under “Table 3c”, the “F (Kivar/KiWT)” value came to 22507.
